Experimental data published in patent US8383619B2, “Pharmaceutical compounds” (Astex Therapeutics Limited, priority 2008, dated 2013).
Where a name gives a salt, the structure may show the parent alone.

How the values were obtained:
Whole blood stability = format: in vitro ADME; settings: 1 μM, 37° C.
Description: (§1) The breakdown of a prodrug in vivo could occur in one or more of several different compartments including for example, but not limited to blood/plasma, liver, stomach, target tissue (e.g. tumour). The preferred location for optimum formation of the parent drug will depend on the disposition in vivo of the pro-drug and parent and an understanding of the optimum concentrations of each required in the circulation to maximise exposure to the active moiety in the target tissue. The potential for pro-drug molecules to deliver the active parent drug may be assessed in vitro by measuring the breakdown of a pro-drug in the presence of relevant body fluids. For the purpose of gaining a preliminary understanding of the stability of compounds of the invention to enzymatic hydrolysis in two such bodily compartments, compound turnover has been studied following incubation in whole blood and liver homogenate from mice and humans. The data obtained from these studies provide a preliminary understanding of which of the prodrugs are better able to deliver parent compound (i.e. are more rapidly broken down to parent compound) in these compartments. Further studies could also determine stability in other compartments (e.g. in the target tumours by measuring stability in tumour lysates).
For these studies, human whole blood was collected from 3 male healthy volunteers in lithium heparin tubes. The blood was pooled and stored at room temperature for a maximum of 2 hours prior to initiation of incubations. Mouse blood was collected from 70 male mice, strain: Balb/c into lithium heparin tubes and pooled.
(§2) Each incubation consisted of a volume of 1 mL. Test compound dosing solutions were then spiked into each homogenate at a final compound concentration of 1 μM. Incubations were performed in the atmosphere in a shaking water bath at 37° C.
(§3) An aliquot of incubation samples was removed into an equal volume of ice-cold acetonitrile at various time points. Samples (whole blood/homogenate+acetonitrile) were centrifuged and aliquots of the supernatant were analysed by HPLC-MS/MS.
(§4) The compound X (2,4-dihydroxy-5-isopropyl-phenyl)-[5-(4-methyl-piperazin-1-ylmethyl)-1,3-dihydro-isoindol-2-yl]-methanone) and the compounds of Examples 1 to 24 were incubated in both whole blood and liver homogenate by Quotient Bioresearch (Rushden, UK). The percentage remaining of parent compound following incubation in whole blood/liver homogenate from human and mouse are set out in the table below.

[1] = Liver homogenate stability; format: in vitro ADME; settings: 1 μM, 37° C., 120 mins
Description: as §1
Mouse livers were obtained from 20 male mice, strain: Balb/c from stock animals. Human liver tissue was obtained from 3 individuals sourced from a UK human tissue bank. The livers were stored frozen. The livers were defrosted and then homogenised to form a homogenate of approximately 30% (w/v) in phosphate buffer, 100 mM, pH 7.4 (referred to as ‘buffer’). Homogenates were kept on ice until use.
as §2, §3, §4

[2] = Tolerability, four consecutive daily doses; format: in vivo, mouse
[3] = Mouse pharmacokinetics, oral gavage; format: in vivo, Balb/c mice; settings: compared with examples 16 and 11
Description: Balb/c mice are dosed with a prodrug by oral gavage. A single administration of one of the 24 examples is given and a dose volume of 10 mL/kg is used for PO doses.
Blood samples are collected in lithium heparin coated tubes at selected time points.
Plasma is isolated by centrifugation and frozen before analysis.
Plasma samples are prepared by liquid-liquid extraction with Acetonitrile containing internal standard. Quantification is by comparison with a standard calibration line constructed with each compound and using a LC-MS/MS method specific to each compound. Animals that had been dosed one of the 24 examples were analysed for prodrug and compound X (2,4-dihydroxy-5-isopropyl-phenyl)-[5-(4-methyl-piperazin-1-ylmethyl)-1,3-dihydro-isoindol-2-yl]-methanone). Pharmacokinetics parameters are calculated using WinNonLin® non compartmental analysis software.
The plasma AUC0.25-2 hrs after PO administration of selected examples are set out in the table below. For examples 16, 17 and 11, plasma AUC0.25-2 hrs was determined following a single dose of 120 μmoles/kg or 240 μmoles/kg.

SMILES | Percentage remaining Human blood (Whole blood stability; 120 mins) | Percentage remaining Mouse blood (Whole blood stability; 120 mins) | Percentage remaining Human Liver [1] | Percentage remaining Mouse Liver [1] | tolerability ([2]; four consecutive daily doses at 240 μmoles/kg) | exposure of the active pharmaceutical agent relative to the starting dose [3] | tolerability ([2]; four consecutive daily doses at 120 μmoles/kg) | Percentage remaining Mouse blood (Whole blood stability; 60 mins (footnote *))
CC(C)c1cc(C(=O)N2Cc3ccc(CN4CCN(C)CC4)cc3C2)c(OC(=O)N(C)C)cc1OC(=O)N(C)C [Example 11, dimethyl-carbamic acid 5-dimethylcarbamoyloxy-2-isopropyl-4-[5-(4-methyl-piperazin-1-ylmethyl)-1,3-dihydro-isoindole-2-carbonyl]-phenyl ester] | 93% | 38% | 31% | 1% | well tolerated | – | – | –
CC(C)c1cc(C(=O)N2Cc3ccc(CN4CCN(C)CC4)cc3C2)c(O)cc1OC(=O)N(C)C [Example 17, dimethyl-carbamic acid 5-hydroxy-2-isopropyl-4-[5-(4-methyl-piperazin-1-ylmethyl)-1,3-dihydro-isoindole-2-carbonyl]-phenyl ester] | 90% | 24% | 0% | 0% | – | optimal exposure of the active pharmaceutical agent relative to the starting dose | well tolerated | –
CC(C)c1cc(C(=O)N2Cc3ccc(CN4CCN(C)CC4)cc3C2)c(O)cc1OC(=O)N1CCCC1 [Example 19, 2-[4-(pyrrolidin-1-ylcarbonyloxy)-2-hydroxy-5-isopropyl-benzoyl]-5-(4-methyl-piperazin-1-ylmethyl)-1,3-dihydro-isoindole] | 102% | – | 0% | 0% | – | – | – | 79% *
CC(C)c1cc(C(=O)N2Cc3ccc(CN4CCN(C)CC4)cc3C2)c(OC(=O)N2CCOCC2)cc1O [Example 20, 2-[2-(morpholin-4-ylcarbonyloxy)-4-hydroxy-5-isopropyl-benzoyl]-5-(4-methyl-piperazin-1-ylmethyl)-1,3-dihydro-isoindole] | 97% | 16% | 23% | 45% | – | – | – | –
CC(C)c1cc(C(=O)N2Cc3ccc(CN4CCN(C)CC4)cc3C2)c(O)cc1OC(=O)N1CCOCC1 [Example 21, 2-[4-(morpholin-4-ylcarbonyloxy)-2-hydroxy-5-isopropyl-benzoyl]-5-(4-methyl-piperazin-1-ylmethyl)-1,3-dihydro-isoindole] | 82% | 0% | 0% | 0% | – | – | – | –
CC(C)c1cc(C(=O)N2Cc3ccc(CN4CCN(C)CC4)cc3C2)c(OC(=O)OC(C)(C)C)cc1OC(=O)N(C)C [Example 22, Carbonic acid tert-butyl ester 5-dimethylcarbamoyloxy-4-isopropyl-2-[5-(4-methyl-piperazin-1-ylmethyl)-1,3-dihydro-isoindole-2-carbonyl]-phenyl ester] | 18% | 0% | 6% | 0% | – | – | – | –
CC(C)c1cc(C(=O)N2Cc3ccc(CN4CCN(C)CC4)cc3C2)c(OC(=O)OC(C)(C)C)cc1OC(=O)OC(C)(C)C [Example 23, Carbonic acid 5-tert-butoxycarbonyloxy-4-isopropyl-2-[5-(4-methyl-piperazin-1-ylmethyl)-1,3-dihydro-isoindole-2-carbonyl]-phenyl ester tert-butyl ester] | 26% | 0% | 1% | 0% | – | – | – | –
CC(C)c1cc(C(=O)N2Cc3ccc(CN4CCN(C)CC4)cc3C2)c(OC(=O)C(C)(C)C)cc1OC(=O)C(C)(C)C [Example 24, 2,2-Dimethyl-propionic acid 5-(2,2-dimethyl-propionyloxy)-2-isopropyl-4-[5-(4-methyl-piperazin-1-ylmethyl)-1,3-dihydro-isoindole-2-carbonyl]-phenyl ester dihydrochloride] | 11% | 0% | 2% | 0% | – | – | – | –
